{"source": "patent US20250230193A1", "about": "“CYCLIC COMPOUND HAVING SELECTIVE KRAS INHIBITORY EFFECT ON HRAS AND NRAS” (CHUGAI SEIYAKU KABUSHIKI KAISHA, priority 2022, published 2025)", "key": {"[1]": {"target": "GDP-bound HRAS wild-type protein (Homo sapiens, UniProt P01112)", "sequence (P01112 whole entry)": "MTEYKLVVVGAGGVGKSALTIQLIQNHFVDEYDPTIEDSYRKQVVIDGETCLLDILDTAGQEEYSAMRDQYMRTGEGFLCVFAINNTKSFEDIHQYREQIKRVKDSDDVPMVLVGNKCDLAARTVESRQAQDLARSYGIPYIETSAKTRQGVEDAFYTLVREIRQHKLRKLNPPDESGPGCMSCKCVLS", "assay": "Binding to HRAS by surface plasmon resonance (SPR), Single Cycle Kinetics"}, "[2]": {"target": "GDP-bound NRAS wild-type protein (Homo sapiens, UniProt P01111)", "sequence (P01111 whole entry)": "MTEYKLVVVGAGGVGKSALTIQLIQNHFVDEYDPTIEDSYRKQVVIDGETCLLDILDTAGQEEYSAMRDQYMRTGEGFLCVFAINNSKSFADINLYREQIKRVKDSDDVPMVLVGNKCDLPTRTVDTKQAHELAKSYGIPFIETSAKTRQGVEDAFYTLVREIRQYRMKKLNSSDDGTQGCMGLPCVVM", "assay": "Binding to NRAS by surface plasmon resonance (SPR), Single Cycle Kinetics"}, "[3]": {"details": "SPR, GDP-bound HRAS wild-type vs GDP-bound KRAS wild-type"}, "[4]": {"details": "SPR, GDP-bound NRAS wild-type vs GDP-bound KRAS wild-type"}, "[5]": {"details": "KD ratio, GDP-bound HRAS wild-type vs GDP-bound KRAS wild-type, SPR"}, "[6]": {"details": "KD ratio, GDP-bound NRAS wild-type vs GDP-bound KRAS wild-type, SPR"}}}
{"smiles": "CCO[C@@H]1C[C@H]2C(=O)NC3(CC(C)(C)C3)C(=O)N(C)[C@@H](C(CC)CC)C(=O)N(C)[C@H](C(=O)N(C)C)CC(=O)N(C)[C@@H](CC3CC3)C(=O)N[C@@H]([C@@H](C)CC)C(=O)N(C)CC(=O)N(C)[C@H]3C/C=C\\CCN(C3=O)[C@@H](Cc3ccc(C)cc3)C(=O)N(C)CC(=O)N[C@@H](CCc3cc(F)c(C(F)(F)F)c(F)c3)C(=O)N2C1", "note": "[PP2137]", "values": [{"measurement": "HRAS/KRAS (ratio of KD value with respect to HRAS to KD value with respect to KRAS)", "setting": "[1]; [3]", "value": "A (a compound having 10 or more and less than 20 is denoted as A)"}, {"measurement": "NRAS/KRAS (ratio of KD value with respect to NRAS to KD value with respect to KRAS)", "setting": "[2]; [4]", "value": "A (a compound having 10 or more and less than 20 is denoted as A)"}]}
{"smiles": "C#CC[C@H]1C(=O)N[C@@H]([C@@H](C)CC)C(=O)N(C)CC(=O)N(C)[C@H]2C/C=C\\CCN(C2=O)[C@@H](Cc2ccc(C(F)(F)F)cc2)C(=O)N(C)CC(=O)N[C@@H](CCc2cc(F)c(C(F)(F)F)c(F)c2)C(=O)N2C[C@H](OCC)C[C@H]2C(=O)NC2(CC(C)(C)C2)C(=O)N(C)[C@@H](C2CCCC2)C(=O)N(C)[C@H](C(=O)N(C)CCC)CC(=O)N1C", "note": "[PP2074]", "values": [{"measurement": "HRAS/KRAS (ratio of KD value with respect to HRAS to KD value with respect to KRAS)", "setting": "[1]; [3]", "value": "A (a compound having 10 or more and less than 20 is denoted as A)"}, {"measurement": "NRAS/KRAS (ratio of KD value with respect to NRAS to KD value with respect to KRAS)", "setting": "[2]; [4]", "value": "A (a compound having 10 or more and less than 20 is denoted as A)"}]}
{"smiles": "CC[C@H](C)[C@@H]1NC(=O)[C@H](CC(C)C)N(C)C(=O)C[C@@H](C(=O)N(C)C)N(C)C(=O)[C@H](C2CCCC2)N(C)C(=O)C2(CCCC2)NC(=O)[C@@H]2CCCN2C(=O)[C@H](CCc2cc(F)c(C(F)(F)F)c(F)c2)NC(=O)CN(C)C(=O)[C@H](Cc2ccc(C(F)(F)F)cc2)N2CCCC[C@@H](C2=O)N(C)C(=O)CN(C)C1=O", "note": "[PP0569]", "values": [{"measurement": "HRAS/KRAS (ratio of KD value with respect to GDP-bound HRAS wild-type protein to KD value with respect to KRAS)", "setting": "[1]; SPR", "value": "B (a compound having 3 or more and less than 10 is denoted as B)"}, {"measurement": "NRAS/KRAS (ratio of KD value with respect to GDP-bound NRAS wild-type protein to KD value with respect to KRAS)", "setting": "[2]; SPR", "value": "C (A compound having a KD ratio of 0.1 or more and less than 3 is denoted as C)"}]}
{"smiles": "CCCOC[C@H]1C(=O)N[C@@H]([C@@H](C)CC)C(=O)N(C2CC2)CC(=O)N(C)[C@H]2C/C=C\\CCN(C2=O)[C@@H](Cc2ccc(C)cc2)C(=O)N(C)CC(=O)N[C@@H](CCc2ccc(C(F)(F)F)c(OC)c2)C(=O)N2C[C@H](OCC)C[C@H]2C(=O)N(C)C2(CCC2)C(=O)N(C)[C@@H](C(CC)CC)C(=O)N(C)[C@H](C(=O)N(C)C)CC(=O)N1C", "note": "[PP2327]", "values": [{"measurement": "HRAS/KRAS (ratio of KD value with respect to HRAS to KD value with respect to KRAS)", "setting": "[1]; [3]", "value": "A (a compound having 10 or more and less than 20 is denoted as A)"}, {"measurement": "NRAS/KRAS (ratio of KD value with respect to NRAS to KD value with respect to KRAS)", "setting": "[2]; [4]", "value": "A (a compound having 10 or more and less than 20 is denoted as A)"}]}
{"smiles": "CC[C@H](C)[C@@H]1NC(=O)[C@H](COC)N(C)C(=O)C[C@@H](C(=O)N2CCOCC2)N(C)C(=O)[C@H](C2CCCC2)N(C)C(=O)C2(CCCC2)NC(=O)[C@@H]2CC(F)(F)CN2C(=O)[C@H](CCc2cc(F)c(C(F)(F)F)c(F)c2)NC(=O)CN(C)C(=O)[C@H](Cc2ccc(C(F)(F)F)cc2)N2CCCCC[C@@H](C2=O)N(C)C(=O)CN(C)C1=O", "note": "[PP0846]", "values": [{"measurement": "HRAS/KRAS (ratio of KD value with respect to HRAS to KD value with respect to KRAS)", "setting": "[1]; [5]", "value": "B (a compound having 3 or more and less than 10 is denoted as B)"}, {"measurement": "NRAS/KRAS (ratio of KD value with respect to NRAS to KD value with respect to KRAS)", "setting": "[2]; [6]", "value": "B (a compound having 3 or more and less than 10 is denoted as B)"}]}
{"smiles": "C=CC[C@H]1C(=O)N[C@@H]([C@@H](C)CC)C(=O)N(C)CC(=O)N(C)[C@H]2CCCCN(C2=O)[C@@H](Cc2ccc(C(F)(F)F)cc2)C(=O)N(C)CC(=O)N[C@@H](CCc2cc(F)c(C(F)(F)F)c(F)c2)C(=O)N2C[C@H](OCC)C[C@H]2C(=O)NC2(CCC2)C(=O)N(C)[C@@H](C2CCCC2)C(=O)N(C)[C@H](C(=O)N(C)C)CC(=O)N1C", "note": "[PP0695]", "values": [{"measurement": "HRAS/KRAS (ratio of KD value with respect to GDP-bound HRAS wild-type protein to KD value with respect to KRAS)", "setting": "[1]; SPR", "value": "C (A compound having a KD ratio of 0.1 or more and less than 3 is denoted as C)"}, {"measurement": "NRAS/KRAS (ratio of KD value with respect to GDP-bound NRAS wild-type protein to KD value with respect to KRAS)", "setting": "[2]; SPR", "value": "C (A compound having a KD ratio of 0.1 or more and less than 3 is denoted as C)"}]}
{"smiles": "CCC[C@H]1C(=O)N[C@@H]([C@@H](C)CC)C(=O)N(C2CC2)CC(=O)N(C)[C@H]2C/C=C\\CCN(C2=O)[C@@H](Cc2ccc(C)cc2)C(=O)N(C)CC(=O)N[C@@H](CCc2cc(F)c(C(F)(F)F)c(F)c2)C(=O)N2C[C@H](OC3CCC3)C[C@H]2C(=O)NC2(CC(C)(C)C2)C(=O)N(C)[C@@H](C2CCCC2)C(=O)N(C)[C@H](C(=O)N(C)C)CC(=O)N1C", "note": "[PP2614]", "values": [{"measurement": "HRAS/KRAS (ratio of KD value with respect to GDP-bound HRAS wild-type protein to KD value with respect to KRAS)", "setting": "[1]; class symbols", "value": "A (a compound having 10 or more and less than 20 is denoted as A)"}, {"measurement": "NRAS/KRAS (ratio of KD value with respect to GDP-bound NRAS wild-type protein to KD value with respect to KRAS)", "setting": "[2]; class symbols", "value": "A (a compound having 10 or more and less than 20 is denoted as A)"}]}
{"smiles": "CC[C@H](C)[C@@H]1NC(=O)[C@H](CC)N(C)C(=O)C[C@@H](C(=O)N(C)C)N(C)C(=O)[C@H](C2CCCC2)N(C)C(=O)C2(CC(C)(C)C2)NC(=O)[C@@H]2C[C@@H](C)CN2C(=O)[C@H](CCc2ccc(C(F)(F)F)c(OC)c2)NC(=O)CN(C)C(=O)[C@H](Cc2ccc(C)cc2)N2CC/C=C\\C[C@@H](C2=O)N(C)C(=O)CN(C)C1=O", "note": "[PP1838]", "values": [{"measurement": "HRAS/KRAS (ratio of KD value for HRAS to KD value for KRAS)", "setting": "[1]; [5]", "value": "A (a compound having 10 or more and less than 20 is denoted as A)"}, {"measurement": "NRAS/KRAS (ratio of KD value for NRAS to KD value for KRAS)", "setting": "[2]; [6]", "value": "A (a compound having 10 or more and less than 20 is denoted as A)"}]}
